Source: patent publication US12427151B2, “Compositions and method of treating cancer” (The Regents of the University of California, priority 2017, dated 2025)
Values after ≈ are worked out from the molar mass of the structure shown.

Experiments:
[1] = tested on: GAS (NZ131); assay: Radial diffusion assay against GAS; assay type: cell-based, group A streptococcus; settings: fraction purified from MO34 conditioned media
From the text: (a) Screening for antimicrobial activity of culture supernatant from 44 strains of S. epidermidis strains isolated from normal human skin by radial diffusion assay against group A streptococcus (GAS). Data represent diameter of growth inhibition zone of conditioned media of each strain. UD=undetectable. (b) Elution profile of the antimicrobial compound purified from culture supernatant of S. epidermidis MO34 by HPLC using a PolyHYDROXYMETHYL. The last step of 5 purification steps is shown. The insert panel represents antimicrobial activity of each fraction on radial diffusion assay against GAS. Green line represents a gradient of H2O in acetonitrile. […] Antimicrobial activity against GAS was determined by radial diffusion assay. […]
S. epidermidis strains from human skin produce non-proteinaceous antibiotic. To screen for commensal skin bacteria producing antimicrobial activity, 44 strains of S. epidermidis from clinical isolates of normal human skin were cultured overnight and the antimicrobial activity produced by each isolate was determined by radial diffusion assay of their conditioned media against GAS (FIG. 1a). […]

[2] = Systemic toxicity in mice; assay type: in vivo; settings: intravenous 20 mg/kg every 48 hrs for 2 weeks
Method: C57BL6 mice (8 week female) were intravascularly administrated with 6-HAP (20 mg/kg) or with an equal volume of vehicle (2.5% DMSO in 0.9% NaCl) every 48 hours for 2 weeks (Arrows). To observe toxicity of 6-HAP, mouse weight was determined at indicated time points. Data represent mean±SE of 10 mice.
Effect of systemic administration with 6-HAP on skin infection and melanoma growth in mice. […] Thus, given the apparent lack of toxicity, the effect on deep tissue infection was tested by intravenously injecting the non-toxic dose of 6-HAP (20 mg/kg) into a mouse model of GAS deep skin infection.

[3] = tested on: GAS; assay: Subcutaneous GAS deep skin infection in mice; assay type: in vivo, C57BL6 mouse; settings: single intravenous injection 20 mg/kg after GAS inoculation
Method: (§1) (a-c) Effect of a single intravascular injection of 6-HAP on skin infection by GAS. The size of the infected lesion was measured by Image-J software (a). Representative images of infected skin (arrow) of mouse treated with 6-HAP or vehicle at Day-1 and Day-3 post infection are shown in (b). Infected skin was removed 24 and 72 hrs after bacterial injection and homogenized in PBS (c). CFUs were enumerated by plating serial dilutions of the homogenate on an agar plate. The data represent mean±SE of eight individual experiments (*P<0.05 and **P<0.01 by Student's t-test vs vehicle control). (d-e) Effect of repeated intravascular administrations with 6-HAP on growth of melanoma in mice. The data represent mean±SE of 10 individual experiments (*P<0.05, **P<0.01 and ***P<0.001 by Student's t-test vs vehicle control) (d). Representative images of tumor (broken line) in mouse treated with 6-HAP or vehicle at Day-9 and Day-13 are shown in (e).
For subcutaneous infection, mouse dorsal skin was subcutaneously injected with GAS (1×10^7 CFU/50 μL in PBS) by 31 G needle. […] Wound development was monitored everyday by taking photographs along with a wound ruler and lesion size was measured with ImageJ ([http://]rsbweb.nih.gov/ij/)(hyperlink disabled by brackets). […]

[4] = tested on: B16F10 melanoma; assay: In vivo tumor growth assay; design: species or system C57BL6 mice; settings: intravenous 20 mg/kg every 48 hrs for 2 weeks
Method: as §1
In vivo tumor growth assay. B16F10 were suspended in sterile PBS. Shaved mouse dorsal skin was intradermally injected with 3×10^5 cells/50 μL. The C57BL6 mice were subsequently injected with 6-HAP dissolved in 2.5% DMSO/0.9% NaCl solution (40 mg/mL) at the dose of 20 mg/kg mouse via intravascular route every 48 hrs for 2 weeks. […] Tumor size was measured as the two perpendicular diameters with a caliper and volume was estimated by a formula, width^2×length/2. […]

[5] = tested on: GBS DK23; assay: MBC determination; assay type: cell-based, group B Streptococcus; settings: Streptococcus, 3-log reduction, 24 hour, 37° C., half strength MHB in PBS
Method: (§2) To determine MBC, bacteria were cultured in TSB (Staphylococcus), THB (Streptococcus) or Nutrient broth (P. aeruginosa and E. coli) by reaching exponential phase (OD600=0.5-0.8). […] After incubation, the number of viable bacteria was measured by counting CFU after spreading 10-fold serial dilutions of bacteria on suitable agar plates. MBC was determined as a 3-log reduction (99.9%) of viable bacteria after 24 hour incubation.
(§3) Antimicrobial activity of 6-HAP in vitro. To examine the specificity of 6-HAP for various bacteria, minimal bactericidal concentrations (MBCs) were determined according to dose-dependent killing curves at 24 hrs of incubation in vitro (Table 1). 6-HAP killed or suppressed growth of several major skin pathogens including GAS (NZ131), group B Streptococcus (GBS) (DK23), methicillin-sensitive S. aureus (ATCC35556), methicillin-resistant S. aureus (MRSA) strains (USA300 and Sanger252), Pseudomonas aeruginosa (P. aeruginosa) (ATCC14213) in vitro. […] S. epidermidis (ATCC12228) was also resistant to 6-HAP.

[6] = tested on: S. aureus ATCC35556; assay: MBC determination; assay type: cell-based; settings: Staphylococcus aureus, 3-log reduction, 24 hour, 37° C., half strength MHB in PBS
Method: as §2, §3

[7] = tested on: S. hominis ATCC27844; assay: MBC determination; assay type: cell-based; settings: Staphylococcus hominis, 3-log reduction, 24 hour, 37° C., half strength MHB in PBS
Method: as §2, §3

ONc1ncnc2nc[nH]c12 [6-HAP, 6-N-hydroxyaminopurine]
zones of inhibition of GAS growth by purified fraction [1]: strong zones of inhibition | toxic effects assessed by visual appearance, behavior or change in weight [2]: no apparent toxic effects | GAS survival in infected skin [3]: significantly suppressed | clinical lesion size [3]: significantly suppressed | tumor size suppression compared to vehicle [4]: > 60% | MBC [5]: 0.781 µg/mL (≈ 5.17 µM) | MBC [6]: 6.25 µg/mL (≈ 41.4 µM) | MBC [7]: 12.5 µg/mL (≈ 82.7 µM)
